This is an account of results in patent US10421755B2, “Salts of aza-bicyclic di-aryl ethers and methods to make them or their precursors” (Novartis AG, priority 2011, dated 2019).

Each structure is given as a SMILES string.

Assay type in all cases: physicochemical
The nature of data set [1]: Loss on drying / initial water content. The settings on record: for Initial water content: comparison table, Example 7. More on the design: Initial water content: unit not given here.
The nature of data set [2]: Known multiple solid forms. The settings on record: comparison table, Example 7.
A short description of data set [3]: Hygroscopicity (moisture gain at relative humidity). More on the design: Hygroscopy @ 85% RH: unit not given here. The settings on record: for moisture gain: at 85% relative humidity (RH); for Hygroscopy @ 85% RH: comparison table, Example 7.
Data set [4] can be described thus: Decomposition temperature. Also noted: unit not given here. The settings on record: comparison table, Example 7.
Data set [5] is described as follows: Stability in buffer solutions and in solid state.

As to `Cc1ccc(-c2ccc(O[C@H]3CN4CCC3CC4)cn2)cc1.O=P(O)(O)O` [Form A of the mono-phosphate salt, mono-phosphate salt of (R)-3-(6-(4-methylphenyl)-pyridin-3-yloxy)-1-aza-bicyclo[2.2.2]octane], in data set [1], the “Loss on drying (LOD) of a sample” value is “about 0.5%” and the Initial water content is recorded as roughly 0.5. Further, in data set [2], the “Known Multiple forms” value is given as “Yes”. Further, in data set [3], the “hygroscopicity (in words)” value is “slightly hygroscopic”, the moisture gain is recorded as 0.2% and the “Hygroscopy @ 85% RH” value was 0.2. Also, the Decomposition temperature in data set [4] is on record as 222.
As to `Cc1ccc(-c2ccc(O[C@H]3CN4CCC3CC4)cn2)cc1.O=C(O)CCC(=O)O` [Form A of the mono-succinate salt, mono-succinate salt of (R)-3-(6-(4-methylphenyl)-pyridin-3-yloxy)-1-aza-bicyclo[2.2.2]octane], in data set [1], the “Loss on drying (LOD) of a sample” value was “about 4.5%” and the Initial water content is reported as roughly 4.5. In addition, in data set [2], the “Known Multiple forms” value is “Yes”. Moreover, in data set [3], the moisture gain is given as 0.3% and the “Hygroscopy @ 85% RH” value worked out at 0.3. Besides, the Decomposition temperature in data set [4] is recorded as 222.
On to `Cc1ccc(-c2ccc(O[C@H]3CN4CCC3CC4)cn2)cc1.Cl` [mono-hydrochloride salt, mono-hydrochloride salt of (R)-3-(6-(4-methylphenyl)-pyridin-3-yloxy)-1-aza-bicyclo[2.2.2]octane], for which, in data set [1], the “Loss on drying (LOD) of a sample” value is given as “about 5%” and the Initial water content is on record as roughly 5. Also, the “Known Multiple forms” value in data set [2] is “Yes”. Moreover, in data set [3], the “hygroscopicity (in words)” value is reported as “hygroscopic”, the moisture gain result is listed as “about 5%” and the “Hygroscopy @ 85% RH” value is recorded as roughly 5. The Decomposition temperature in data set [4] turned out to be 262.
As for `Cc1ccc(-c2ccc(O[C@H]3CN4CCC3CC4)cn2)cc1.O=C(O)/C=C\C(=O)O` [mono-maleate salt, mono-maleate salt of (R)-3-(6-(4-methylphenyl)-pyridin-3-yloxy)-1-aza-bicyclo[2.2.2]octane], in data set [1], the “Loss on drying (LOD) of a sample” value is on record as less than 0.03% and the Initial water content is reported as less than 0.1. Besides, in data set [2], the “Known Multiple forms” value is “No”. Also, in data set [3], the “hygroscopicity (in words)” value was “slightly hygroscopic”, the moisture gain is reported as 0.3% and the “Hygroscopy @ 85% RH” value worked out at 0.3. The solid-state stability entry in data set [5] was “good”. For the same compound, the “stability in buffer solutions” value in data set [5] (many buffer solutions, various pH values) was “good stability”. The compound also came in with a Decomposition temperature in data set [4] of 207.
For the compound `Cc1ccc(-c2ccc(O[C@H]3CN4CCC3CC4)cn2)cc1.O=C(O)CC(=O)O` [mono-malonate salt, mono-malonate salt of (R)-3-(6-(4-methylphenyl)-pyridin-3-yloxy)-1-aza-bicyclo[2.2.2]octane], in data set [1], the “Loss on drying (LOD) of a sample” value was determined as 0% and the Initial water content is roughly 0. The “Known Multiple forms” value in data set [2] was “No”. Also, in data set [3], the “hygroscopicity (in words)” value is recorded as “slightly hygroscopic”, the moisture gain worked out at 1.3% and the “Hygroscopy @ 85% RH” value came out at 1.3. The compound also returned a Decomposition temperature in data set [4] of 148.
